The test system of series [1] is HT1080 cells (fibrosarcoma line). Kind of series: Cell viability assay (CellTiter-Blue) on HT1080 cells. The format is cell-based. As to the method:
(§1) U2OS and A2780 cells purchased from ATCC were held in McCoy's 5A or RPMI 1640 medium respectively, supplemented with 10% foetal bovine serum (FBS)) and 1× Antibiotic-Antimycotic (all from Gibco®) at 37° C. with 5% CO2. Measurement of cell viability was carried out by seeding 2000 cells per well in a 96-well plate. N-Acetyl Cystein (NAC, A9165 Sigma) or Pan-caspase zVAD-FMK inhibitor (550377 by BD pharmingen) were pre-treated for 1 hour or 30 minutes respectively before treatment with Marmycin A. The reagent <<CellTiter-Blue®>> Reagent) (20 μl/well) was added after 24, 48, or 72 treatment hours, and the cells were incubated for one hour before fluorescence detection (560(20)Ex/590(10)Em) on a Perkin Elmer Wallac 1420 Victor2 Microplate Reader.
The same protocol was followed to evaluate cell viability of HT1080 cells in the presence of compound 33 of Example 6 (called Oxamethoxymarmycin), doxorubicin or etoposide.

The subject of series [2] is A2780 cells (ovarian cancer line). Kind of series: Cell proliferation/viability assay (CellTiter-Blue) on A2780 cells. The conditions noted are these: Homo sapiens, at 72 hours. The format is cell-based. As to the method: as §1
(Alamar Blue is a resazurin reagent that responds to reducing activity.)

Series [3] relates to U2OS cells (osteosarcoma cancer line). Kind of series: Cell proliferation/viability assay (CellTiter-Blue) on U2OS cells. In kind it is cell-based. The conditions noted are these: Homo sapiens, at 72 hours. As to the method: as §1
The subject of series [4] is DNA-damage response (phosphorylation of H2AX on ser139, phosphorylation of P53, induction of P21). Briefly: Western Blot analysis of DNA-damage response. The conditions noted are these: cells treated as in Example 10. In kind it is cell-based. As to the method: The cells treated as indicated in Example 10 were washed twice in PBS and lysed with Laemmli buffer 2×. The cell extracts were brought to the boil for five minutes at 100° C. and quantified with a Nanodrop 2000 device (Thermal Scientific). 100 μg of protein lysate were separated with 4-20% Mini-PROTEAN® TGX Stain-Free™ gel (BioRad) and transferred onto a nitrocellulose membrane (Amersham). Stains were detected with different antibodies such as anti-β-actin (ab8226, Abcam), anti-p62 (610833, BD Transduction Laboratories™), anti-H2AX (PA1-14198, Thermal Scientific), anti-gH2AX (Ser139) (#2577, Cell Signaling), anti-p21, anti-p53 (1C12) (#2524, Cell Signaling), anti-p-p53, anti-LC3B (#2775, Cell Signaling), anti-BID, diluted to 1/1000 in 5% BSA, 0.1% Tween-20/TBS.
Background: In western blotting, separated proteins are transferred to a membrane and probed.

The test system of series [5] is HMLER CD24- cancerous stem cell line (HMLER CD44high/CD24low). Kind of series: Cell viability assay on HMLER CD24- cancerous stem cell line. In kind it is cell-based, human. As to the method: (§2) Cell viability: cell viability was assessed using the following protocol:
(§3) Seeding 1000 cells/well in a 96-well plate. The cells were treated for 72 hours. After a treatment time of 72 hours the reagent CellTiter-Blue® Reagent (G8081, Promega) was added and the cells incubated for one hour before recording fluorescence intensities (Excitation, 560/20 nm; Emission, 590/10 nm) using a Perkin Elmer Wallac 1420 Victor2 Microplate Reader.
(§4) Cell culture: the following material was used: saline buffer <<Dulbecco's Phosphate-Buffered Saline>> (14190-094, 500 mL, Gibco), DMEM/F12 (31331-028, 500 mL, Gibco), DMEM high-glucose with UltraGlutamine (BE12-604F/U1, BioWhittaker, Lonza), McCoy's 5A medium (Modified) (26600-023, Gibco), RPMI 1640 with L-glutamine (BE12-702F/U1, BioWhittaker, Lonza), Foetal Bovine Serum—FBS, 10270-106, Gibco), Hydrocortisone (H0888, Sigma), Insulin (10516, Sigma or 19278, Sigma), BD Epidermal growth factor human recombinant (hEGF, 354052, BD Biosciences), PEN-STREP (DE17-602E, BioWhittaker, Lonza), puromycin dihydrochloride (A11138-02, 460 Life Technologies).
The human mammary epithelial cell line was infected with a retrovirus carrying hTERT, SV40 and the oncogenic allele HrasV12, called HMLER CD44high/CD24 low cells, not expressing E-cadherin and Vimentin (reference HMLER CD24low or HMLER CD44+/CD24−), courteously offered by A. Puisieux (INSERM).
(§5) The HMLER CD44^high/CD24^low cells (Cancer stem cells—CSCs), HMLER CD44^high/CD24^high (non-CSCs) were cultured in DMEM/F12 supplemented with 10% FBS, 10 μg/mL insulin, 0.5 μg/mL hydrocortisone, 10 ng/mL hEGF and 0.5 μg/mL of puromycin.

Series [6] concerns lysosomes of U2OS cells. Briefly: Cell location by fluorescence (LysoTracker DND-22, GFP-Lamp1, DAPI) in U2OS cells. The format is cell-based. The conditions noted are these: U2OS cells treated 24 hours with 10 μM. As to the method:
U2OS cells cultured to less than 40% confluence were treated for 24 hours with 10 μM of compound unless otherwise indicated. The marker LysoTracker® Blue DND-22 (L7525, Molecular Probes@) was added 30 minutes before fixing. GFP-Lamp1 was transiently transfected following the manufacturer's instructions. To summarise, […] of CellLight® Lysosomes-GFP BacMam 2.0 (C10596, Life Technologies) were mixed with […] of U2OS culture medium and added to each well of a 24-well plate. After overnight incubation (16 hours), the cells were washed and treated with Marmycin A as indicated in Example 9. For analysis by immunofluorescence, the cells were fixed 12 minutes in 2% formaldehyde/PBS, permeabilised 10 min with 0.1% Triton X/PBS and […] for 1 h with 5% BSA, 0.2% Tween-20/PBS (blocking buffer). Cover glasses were incubated with anti-LAMP1, p62, antibodies, diluted to 1/100 in the blocking buffer overnight at 4° C. The cells were then washed 3 times with 0.2% Tween-20/PBS, and incubated as described above with anti-mouse Alexa 488-conjugated secondary antibody (A11029, Invitrogen) diluted to 1/500 in blocking buffer. The cover glasses were washed as described above and mounted with VectaShield® mounting medium for analysis by fluorescence with or without DAPI (Vector Laboratories Ltd). The images were obtained with a Leica microscope […] and analysed with ImageJ software. […]

Series [7] has as its system HMLER ID2 cancerous cell line. Briefly: Cell viability assay on HMLER ID2 cancerous cell line. The settings on record: HMLER ID2 cells. In kind it is cell-based, human. The method, then:
as §2, §3, §4
The line referenced HMLER ID2 is a hTert, SV40, HRasV12 transformed line, isogenic but non-stem.
as §5

In series [8] the test system is MDA-MB-231 cells (human breast cancer cells). Briefly: Cell viability assay (CellTiter-Blue) on MDA-MB-231 cells. In kind it is cell-based. As to the method: MDA-MB-231 cells (human breast cancer cells) purchased from ATCC were held in McCoy's 5A medium, supplemented with 10% foetal bovine serum (FBS)) and 1× Antibiotic-Antimycotic (all from Gibco®) at 37° C. with 5% CO2.
Cell viability was measured by seeding 2000 cells per well in a 96-well plate. N-Acetyl Cystein (NAC, A9165 Sigma) or Pan-caspase zVAD-FMK inhibitor (550377 from BD pharmingen) were pre-treated for 1 hour or 30 minutes respectively before treatment with the assayed compounds. The reagent <<CellTiter-Blue® Reagent>> (20 μl/well) was added after a treatment time of 24, 48 or 72 hours, and the cells were incubated for one hour before fluorescence detection (560(20)Ex/590(10)Em) on a Perkin Elmer Wallac 1420 Victor2 Microplate Reader.
The assayed compounds were doxorubicin, marmycin A, artesunate, artesumycin and a combination of marmycin A and artesunate (cf. FIG. 9).

In series [9] the test system is human breast, prostate, lung, colon, ovarian cancer lines and leukaemia. The conditions noted are these: cited from earlier work.
Where [10] appears, read: Homo sapiens, HT-1080, at 72 hours.

“Also recorded” adds a separate entry of the source.

In general, IC50 refers to the midpoint of a concentration-inhibition curve.

With `COc1cccc2c1C(=O)c1c(O)c3c(c(O)c1C2=O)C[C@@](O)(C(=O)CO)C[C@@H]3O[C@H]1C[C@H](N)[C@H](O)[C@H](C)O1` [doxorubicin, reference compound], the results for the half-maximal inhibitory concentration (IC50) in series [1] (setting [10]), in series [2] and in series [3] were 35 nM, 60 nM and 100 nM, respectively. For the same molecule, the “DNA-damage response (Western Blot)” value in series [4] is listed as “generates a DNA-damage response”.

In turn, `COc1cc([C@@H]2c3cc4c(cc3[C@@H](O[C@@H]3O[C@@H]5CO[C@@H](C)O[C@H]5[C@H](O)[C@H]3O)[C@H]3COC(=O)[C@H]23)OCO4)cc(OC)c1O` [etoposide] showed an IC50 in series [1] (setting [10]) of 500 nM.

As for `Cc1ccc2c3c(ccc2c1)C(=O)c1c(ccc2c1NC1(C)CC2O[C@@H](C)[C@@H]1OC(=O)CCC(=O)OC1O[C@@H]2O[C@@]4(C)CC[C@H]5[C@H](C)CC[C@@H]([C@H]1C)[C@@]25OO4)C3=O` (stereo partly drawn) [artesumycin], the “cytotoxic activity compared with artesunate” value in [5] (HMLER CD24- cells) and in series [7] was “higher than that of artesunate” throughout. Moreover, the cell viability entry in series [5] (HMLER CD24- cells, concentration of 1 μm, 72 hours) is reported as “about 18%”; in [7] (concentration of 0.1 μm, 72 hours) it was “about 44%”; in [8] (concentration of 0.9 μm) it was “less than 50%”. The concentration for half-maximal inhibition (IC50) in series [5] (Homo sapiens, HMLER CD24- cancerous stem cells, 72 hours) was 100 nM; in [7] (Homo sapiens, 72 hours) it was 98 nM; in [8] (Homo sapiens, 72 h treatment), 900 nM. The cell location result in series [6] is recorded as “accumulates in the lysosomes”. In [8], the “cytotoxic activity compared with other treatments” value was “higher than that of marmycin A and also higher than that of marmycin A combined with artesunate; also recorded: synergic effect”.

For the molecule Oxamethoxymarmycin, the IC50 in series [1] (at 72 hours) was 75000 nM.

Consider `Cc1ccc2c3c(ccc2c1)C(=O)c1c(ccc2c1NC1(C)CC2O[C@@H](C)[C@@H]1O)C3=O` (stereo partly drawn) [marmycin A], for which the IC50 in series [2] is 9800 nM; in [3], 10300 nM. Also, the cytotoxic properties result in series [9] is listed as “cytotoxic properties”. For the same molecule, the cell location entry in series [6] is on record as “not located at the cell nucleus but at the site of the lysosomes; also recorded: accumulates in the lysosomes”. The “DNA-damage response (Western Blot)” value in series [4] is reported as “only scarcely damages caspase-dependent DNA”.

Source of the values: patent US20170260210A1, “METHOD FOR PREPARING MARMYCIN A AND ANALOGUES THEREOF, AND ALSO USES THEREOF” (Centre national de la recherche scientifique, priority 2014, published 2017).
